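Step 1: Grow cells in 96-well plates. Step 2: Expose to compound for 48 hours at 5 concentrations. Step 3: Interpolate endpoints linearly; if unreached, use highest concentration. The concentration for 50% growth inhibition is given as GI50.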 Activity calls are given as the source filed them. No stated cut-off is given here; in the data, active = GI50 up to about 1.1 µM and inactive = higher.
Legend:
Assay in all cases: growth of human tumour cells (NCI), 48 h
NCI/ADR-RES = system: NCI/ADR-RES
SF-268 = system: SF-268
SK-MEL-2 = system: SK-MEL-2
BT-549 = system: BT-549
MCF7 = system: MCF7
K562 = system: K562
HCT-15 = system: HCT-15
UACC-62 = system: UACC-62
IGROV-1 = system: IGROV-1
COLO 205 = system: COLO 205
SK-OV-3 = system: SK-OV-3
A498 = system: A498
OVCAR-5 = system: OVCAR-5
M14 = system: M14
786-0 = system: 786-0
RPMI-8226 = system: RPMI-8226
UO-31 = system: UO-31
NCI-H460 = system: NCI-H460
Malme-3M = system: Malme-3M
HT-29 = system: HT-29
SF-539 = system: SF-539
SW-620 = system: SW-620
EKVX = system: EKVX
Hs-578T = system: Hs-578T
CCRF-CEM = system: CCRF-CEM
HOP-92 = system: HOP-92
HCT-116 = system: HCT-116
OVCAR-3 = system: OVCAR-3
UACC-257 = system: UACC-257
NCI-H522 = system: NCI-H522
SNB-19 = system: SNB-19
SK-MEL-5 = system: SK-MEL-5
KM12 = system: KM12
SN12C = system: SN12C
NCI-H23 = system: NCI-H23
A549 = system: A549
T47D = system: T47D
LOX IMVI = system: LOX IMVI
HCC 2998 = system: HCC 2998
RXF 393 = system: RXF 393
SF-295 = system: SF-295
MDA-N = system: MDA-N
MDA-MB-231 = system: MDA-MB-231
PC-3 = system: PC-3
CAKI-1 = system: CAKI-1
MDA-MB-435 = system: MDA-MB-435
HOP-62 = system: HOP-62
MOLT-4 = system: MOLT-4
OVCAR-4 = system: OVCAR-4
ACHN = system: ACHN
U-251 = system: U-251
TK-10 = system: TK-10
NCI-H226 = system: NCI-H226
OVCAR-8 = system: OVCAR-8
SNB-75 = system: SNB-75
SK-MEL-28 = system: SK-MEL-28
DU-145 = system: DU-145
SR = system: SR

Compound: O=C1C(=CNc2ccccc2Cl)C(=O)N(c2ccccc2)C(=O)N1c1ccccc1
- GI50 (NCI/ADR-RES): > 100 µM (inactive)
- GI50 (SF-268): > 100 µM (inactive)
- GI50 (SK-MEL-2): 27.9 µM (inactive)
- GI50 (BT-549): > 100 µM (inactive)
- GI50 (MCF7): > 100 µM (inactive)
- GI50 (K562): > 100 µM (inactive)
- GI50 (HCT-15): > 100 µM
- GI50 (UACC-62): > 100 µM (inactive)
- GI50 (IGROV-1): > 100 µM (inactive)
- GI50 (COLO 205): > 100 µM (inactive)
- GI50 (SK-OV-3): > 100 µM (inactive)
- GI50 (A498): 85.1 µM (inactive)
- GI50 (OVCAR-5): > 100 µM (inactive)
- GI50 (M14): 92.7 µM (inactive)
- GI50 (786-0): > 100 µM (inactive)
- GI50 (RPMI-8226): > 100 µM (inactive)
- GI50 (UO-31): > 100 µM (inactive)
- GI50 (NCI-H460): > 100 µM (inactive)
- GI50 (Malme-3M): > 100 µM (inactive)
- GI50 (HT-29): > 100 µM (inactive)
- GI50 (SF-539): > 100 µM (inactive)
- GI50 (SW-620): > 100 µM (inactive)
- GI50 (EKVX): > 100 µM (inactive)
- GI50 (Hs-578T): 80.4 µM (inactive)
- GI50 (CCRF-CEM): > 100 µM (inactive)
- GI50 (HOP-92): > 100 µM (inactive)
- GI50 (HCT-116): > 100 µM (inactive)
- GI50 (OVCAR-3): > 100 µM (inactive)
- GI50 (UACC-257): > 100 µM (inactive)
- GI50 (NCI-H522): > 100 µM (inactive)
- GI50 (SNB-19): > 100 µM (inactive)
- GI50 (SK-MEL-5): > 100 µM (inactive)
- GI50 (KM12): > 100 µM (inactive)
- GI50 (SN12C): > 100 µM (inactive)
- GI50 (NCI-H23): > 100 µM (inactive)
- GI50 (A549): > 100 µM (inactive)
- GI50 (T47D): > 100 µM (inactive)
- GI50 (LOX IMVI): > 100 µM (inactive)
- GI50 (HCC 2998): > 100 µM (inactive)
- GI50 (RXF 393): > 100 µM (inactive)
- GI50 (SF-295): > 100 µM (inactive)
- GI50 (MDA-N): > 100 µM (inactive)
- GI50 (MDA-MB-231): > 100 µM (inactive)
- GI50 (PC-3): > 100 µM (inactive)
- GI50 (CAKI-1): > 100 µM (inactive)
- GI50 (MDA-MB-435): > 100 µM (inactive)
- GI50 (HOP-62): > 100 µM (inactive)
- GI50 (MOLT-4): > 100 µM (inactive)
- GI50 (OVCAR-4): > 100 µM (inactive)
- GI50 (ACHN): > 100 µM (inactive)
- GI50 (U-251): > 100 µM (inactive)
- GI50 (TK-10): > 100 µM (inactive)
- GI50 (NCI-H226): > 100 µM (inactive)
- GI50 (OVCAR-8): 23.7 µM (inactive)

Compound: CCOC(=O)c1cc(C2CCN(Cc3ccccc3)C2=S)c(C(=O)C=[N+]=[N-])[nH]1 (centres undefined)
- GI50 (NCI/ADR-RES): 24.5 µM (inactive)
- GI50 (SF-268): 25.8 µM (inactive)
- GI50 (SNB-75): 29.4 µM (inactive)
- GI50 (SK-MEL-2): 21.2 µM (inactive)
- GI50 (BT-549): 26.9 µM (inactive)
- GI50 (MCF7): 14.6 µM (inactive)
- GI50 (K562): 64.6 µM (inactive)
- GI50 (HCT-15): 19.5 µM
- GI50 (UACC-62): 18.3 µM (inactive)
- GI50 (IGROV-1): 24.7 µM (inactive)
- GI50 (COLO 205): 33.8 µM (inactive)
- GI50 (SK-OV-3): > 100 µM (inactive)
- GI50 (A498): 77.4 µM (inactive)
- GI50 (OVCAR-5): 30.3 µM (inactive)
- GI50 (M14): 20.1 µM (inactive)
- GI50 (786-0): 28.1 µM (inactive)
- GI50 (RPMI-8226): 45.9 µM (inactive)
- GI50 (SK-MEL-28): 26 µM (inactive)
- GI50 (UO-31): 18.8 µM (inactive)
- GI50 (NCI-H460): 23.9 µM (inactive)
- GI50 (Malme-3M): 28.7 µM (inactive)
- GI50 (HT-29): 31.5 µM (inactive)
- GI50 (SW-620): 38.6 µM (inactive)
- GI50 (EKVX): 26.7 µM (inactive)
- GI50 (Hs-578T): 45.6 µM (inactive)
- GI50 (CCRF-CEM): 13.4 µM (inactive)
- GI50 (HOP-92): 21.3 µM (inactive)
- GI50 (HCT-116): 40.5 µM (inactive)
- GI50 (OVCAR-3): 17.5 µM (inactive)
- GI50 (UACC-257): 25.8 µM (inactive)
- GI50 (NCI-H522): 20.7 µM (inactive)
- GI50 (DU-145): 33.4 µM (inactive)
- GI50 (SNB-19): 28.8 µM (inactive)
- GI50 (SK-MEL-5): 19.3 µM (inactive)
- GI50 (KM12): 55.5 µM (inactive)
- GI50 (NCI-H23): 21.7 µM (inactive)
- GI50 (A549): 26.4 µM (inactive)
- GI50 (HCC 2998): 49.7 µM (inactive)
- GI50 (RXF 393): 31 µM (inactive)
- GI50 (SF-295): 20.5 µM (inactive)
- GI50 (MDA-N): 21.1 µM (inactive)
- GI50 (MDA-MB-231): 33.1 µM (inactive)
- GI50 (PC-3): 27.4 µM (inactive)
- GI50 (CAKI-1): 68.5 µM (inactive)
- GI50 (MDA-MB-435): 40.1 µM (inactive)
- GI50 (HOP-62): 51.4 µM (inactive)
- GI50 (MOLT-4): 30.4 µM (inactive)
- GI50 (OVCAR-4): 54.7 µM (inactive)
- GI50 (ACHN): 27.2 µM (inactive)
- GI50 (U-251): 25.3 µM (inactive)
- GI50 (TK-10): 35.9 µM (inactive)
- GI50 (OVCAR-8): 37.3 µM (inactive)

Compound: N=c1c2ccccc2nc2oc3ccc(Cl)cc3n12
- GI50 (NCI/ADR-RES): 48.3 µM (inactive)
- GI50 (SF-268): 34.2 µM (inactive)
- GI50 (SNB-75): 2.75 µM (inactive)
- GI50 (SK-MEL-2): 20.6 µM (inactive)
- GI50 (BT-549): 36.6 µM (inactive)
- GI50 (K562): 9.2 µM (inactive)
- GI50 (HCT-15): 48 µM
- GI50 (UACC-62): 37.7 µM (inactive)
- GI50 (IGROV-1): 16.4 µM (inactive)
- GI50 (COLO 205): 29.4 µM (inactive)
- GI50 (SK-OV-3): 13.1 µM (inactive)
- GI50 (OVCAR-5): 19.8 µM (inactive)
- GI50 (M14): 9.4 µM (inactive)
- GI50 (SR): 31.9 µM (inactive)
- GI50 (786-0): 3.94 µM (inactive)
- GI50 (RPMI-8226): 4.4 µM (inactive)
- GI50 (SK-MEL-28): 25.2 µM (inactive)
- GI50 (UO-31): 16.4 µM (inactive)
- GI50 (NCI-H460): 25.8 µM (inactive)
- GI50 (Malme-3M): 10.8 µM (inactive)
- GI50 (HT-29): 20.3 µM (inactive)
- GI50 (SF-539): 15.5 µM (inactive)
- GI50 (SW-620): 5.62 µM (inactive)
- GI50 (EKVX): 15.6 µM (inactive)
- GI50 (Hs-578T): 2.28 µM (inactive)
- GI50 (CCRF-CEM): 43.9 µM (inactive)
- GI50 (HCT-116): 10.6 µM (inactive)
- GI50 (OVCAR-3): 13.9 µM (inactive)
- GI50 (UACC-257): > 100 µM (inactive)
- GI50 (NCI-H522): 17.3 µM (inactive)
- GI50 (SNB-19): 8.22 µM (inactive)
- GI50 (SK-MEL-5): 37.8 µM (inactive)
- GI50 (KM12): > 100 µM (inactive)
- GI50 (SN12C): 9.46 µM (inactive)
- GI50 (NCI-H23): 14.1 µM (inactive)
- GI50 (A549): 12.9 µM (inactive)
- GI50 (LOX IMVI): 3.21 µM (inactive)
- GI50 (HCC 2998): > 100 µM (inactive)
- GI50 (RXF 393): 11.9 µM (inactive)
- GI50 (SF-295): 12.8 µM (inactive)
- GI50 (MDA-N): 65.6 µM (inactive)
- GI50 (MDA-MB-231): 25.6 µM (inactive)
- GI50 (PC-3): 33.1 µM (inactive)
- GI50 (CAKI-1): 11.9 µM (inactive)
- GI50 (MDA-MB-435): 71.3 µM (inactive)
- GI50 (HOP-62): 5.81 µM (inactive)
- GI50 (MOLT-4): 35.3 µM (inactive)
- GI50 (OVCAR-4): 2.77 µM (inactive)
- GI50 (ACHN): 11.5 µM (inactive)
- GI50 (U-251): 5.38 µM (inactive)
- GI50 (TK-10): 20 µM (inactive)
- GI50 (NCI-H226): 17.8 µM (inactive)
- GI50 (OVCAR-8): 9.66 µM (inactive)
